[1] abbreviates: in 2,2,4-trimethylpentane, 298.2 K.
Where [2] appears, read: in 2,2,4-trimethylpentane, 308.2 K.
Setting [3] is: in 2,2,4-trimethylpentane, 318.2 K.

2 compounds from BigSolDB 2.1 can be followed below.

By solubility (mole fraction) is commonly meant the moles of solute divided by all moles in the saturated solution.

On to `c1ccc2c(c1)ccc1ccccc12`, for which the solubility (mole fraction) runs as follows: under setting [1], 0.0246; under setting [2], 0.0378; under setting [3], 0.0484; (in ethanol, 298.2 K) 0.0119; (in ethanol, 308.2 K) 0.0159; (in ethanol, 318.2 K) 0.019.
With `c1ccc2cc3ccccc3cc2c1`, the solubility (mole fraction) reads like this: under setting [1], 0.00119; under setting [2], 0.00152; under setting [3], 0.00177; (in ethanol, 298.2 K) 0.000505; (in ethanol, 308.2 K) 0.000665; (in ethanol, 318.2 K) 0.00078.
